Measurements published in PMC8333425, “Discovery of a dual Ras and ARF6 inhibitor from a GPCR endocytosis screen” (Nature Communications, 2021).

Columns and labels:
Test in all cases: KINOMEscan kinase binding assay
[1] = biological target: T1, 384 kinases from the human genome (Homo sapiens, UniProt Q13153); conditions: kinase PAK1 (Entrez PAK1)
T1 construct: purchased Eurofin/DiscoverX
Method in brief: (§1)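 A panel of 384 human kinases was profiled by KINOMEscan binding in the presence of 10 µM compound. Kinase–ligand binding was given as percent of DMSO control, averaged from duplicates in a single run, with an S(10) selectivity score.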

[2] = biological target: T2, 384 kinases from the human genome (Homo sapiens, UniProt O15075); conditions: kinase DCAMKL1 (Entrez DCLK1)
T2 construct: purchased Eurofin/DiscoverX
Method in brief: as §1

[3] = biological target: T3, 384 kinases from the human genome (Homo sapiens, UniProt Q13976); conditions: kinase PRKG1 (Entrez PRKG1)
T3 construct: purchased Eurofin/DiscoverX
Method in brief: as §1

[4] = biological target: T4, 384 kinases from the human genome (Homo sapiens, UniProt Q8WTQ7); conditions: kinase GRK7 (Entrez GRK7)
T4 construct: purchased Eurofin/DiscoverX
Method in brief: as §1

[5] = biological target: T5, 384 kinases from the human genome (Homo sapiens, UniProt Q8NG66); conditions: kinase NEK11 (Entrez NEK11)
T5 construct: purchased Eurofin/DiscoverX
Method in brief: as §1

[6] = biological target: T6, 384 kinases from the human genome (Homo sapiens, UniProt Q02750); conditions: kinase MEK1 (Entrez MAP2K1)
T6 construct: purchased Eurofin/DiscoverX
Method in brief: as §1

[7] = biological target: T7, 384 kinases from the human genome (Homo sapiens, UniProt O43318); conditions: kinase TAK1 (Entrez MAP3K7)
T7 construct: purchased Eurofin/DiscoverX
Method in brief: as §1

[8] = biological target: T8, 384 kinases from the human genome (Homo sapiens, UniProt Q9UEW8); conditions: kinase STK39 (Entrez STK39)
T8 construct: purchased Eurofin/DiscoverX
Method in brief: as §1

[9] = biological target: T9, 384 kinases from the human genome (Homo sapiens, UniProt P54760); conditions: kinase EPHB4 (Entrez EPHB4)
T9 construct: purchased Eurofin/DiscoverX
Method in brief: as §1

[10] = biological target: T10, 384 kinases from the human genome (Homo sapiens, UniProt Q86Z02); conditions: kinase HIPK1 (Entrez HIPK1)
T10 construct: purchased Eurofin/DiscoverX
Method in brief: as §1

[11] = biological target: T11, 384 kinases from the human genome (Homo sapiens, UniProt O94921); conditions: kinase PFTK1 (Entrez CDK14)
T11 construct: purchased Eurofin/DiscoverX
Method in brief: as §1

[12] = biological target: T12, 384 kinases from the human genome (Homo sapiens, UniProt P14616); conditions: kinase INSRR (Entrez INSRR)
T12 construct: purchased Eurofin/DiscoverX
Method in brief: as §1

[13] = biological target: T13, 384 kinases from the human genome (Homo sapiens, UniProt Q02763); conditions: kinase TIE2 (Entrez TEK)
T13 construct: purchased Eurofin/DiscoverX
Method in brief: as §1

[14] = biological target: T14, 384 kinases from the human genome (Homo sapiens, UniProt P42685); conditions: kinase FRK (Entrez FRK)
T14 construct: purchased Eurofin/DiscoverX
Method in brief: as §1

[15] = biological target: T15, 384 kinases from the human genome (Homo sapiens, UniProt Q9UF33); conditions: kinase EPHA6 (Entrez EPHA6)
T15 construct: purchased Eurofin/DiscoverX
Method in brief: as §1

[16] = biological target: T16, 384 kinases from the human genome (Homo sapiens, UniProt Q6DT37); conditions: kinase DMPK2 (Entrez CDC42BPG)
T16 construct: purchased Eurofin/DiscoverX
Method in brief: as §1

[17] = biological target: T17, 384 kinases from the human genome (Homo sapiens, UniProt Q8IW41); conditions: kinase MAPKAPK5 (Entrez MAPKAPK5)
T17 construct: purchased Eurofin/DiscoverX
Method in brief: as §1

[18] = biological target: T18, 384 kinases from the human genome (Homo sapiens, UniProt Q8IY84); conditions: kinase NIM1 (Entrez MGC42105)
T18 construct: purchased Eurofin/DiscoverX
Method in brief: as §1

[19] = biological target: T19, 384 kinases from the human genome (Homo sapiens, UniProt P53778); conditions: kinase p38-gamma (Entrez MAPK12)
T19 construct: purchased Eurofin/DiscoverX
Method in brief: as §1

[20] = biological target: T20, 384 kinases from the human genome (Homo sapiens, UniProt Q9Y2H1); conditions: kinase NDR2 (Entrez STK38L)
T20 construct: purchased Eurofin/DiscoverX
Method in brief: as §1

[21] = biological target: T21, 384 kinases from the human genome (Homo sapiens, UniProt Q13188); conditions: kinase MST2 (Entrez STK3)
T21 construct: purchased Eurofin/DiscoverX
Method in brief: as §1

[22] = biological target: T22, 384 kinases from the human genome (Homo sapiens, UniProt Q32MK0); conditions: kinase MLCK (Entrez MYLK3)
T22 construct: purchased Eurofin/DiscoverX
Method in brief: as §1

[23] = biological target: T23, 384 kinases from the human genome (Homo sapiens, UniProt P43405); conditions: kinase SYK (Entrez SYK)
T23 construct: purchased Eurofin/DiscoverX
Method in brief: as §1

[24] = biological target: T24, 384 kinases from the human genome (Homo sapiens, UniProt Q16566); conditions: kinase CAMK4 (Entrez CAMK4)
T24 construct: purchased Eurofin/DiscoverX
Method in brief: as §1

[25] = biological target: T25, 384 kinases from the human genome (Homo sapiens, UniProt P46734); conditions: kinase MEK3 (Entrez MAP2K3)
T25 construct: purchased Eurofin/DiscoverX
Method in brief: as §1

[26] = biological target: T26, 384 kinases from the human genome (Homo sapiens, UniProt Q9BRS2); conditions: kinase RIOK1 (Entrez RIOK1)
T26 construct: purchased Eurofin/DiscoverX
Method in brief: as §1

T11 sequence (O94921 whole entry): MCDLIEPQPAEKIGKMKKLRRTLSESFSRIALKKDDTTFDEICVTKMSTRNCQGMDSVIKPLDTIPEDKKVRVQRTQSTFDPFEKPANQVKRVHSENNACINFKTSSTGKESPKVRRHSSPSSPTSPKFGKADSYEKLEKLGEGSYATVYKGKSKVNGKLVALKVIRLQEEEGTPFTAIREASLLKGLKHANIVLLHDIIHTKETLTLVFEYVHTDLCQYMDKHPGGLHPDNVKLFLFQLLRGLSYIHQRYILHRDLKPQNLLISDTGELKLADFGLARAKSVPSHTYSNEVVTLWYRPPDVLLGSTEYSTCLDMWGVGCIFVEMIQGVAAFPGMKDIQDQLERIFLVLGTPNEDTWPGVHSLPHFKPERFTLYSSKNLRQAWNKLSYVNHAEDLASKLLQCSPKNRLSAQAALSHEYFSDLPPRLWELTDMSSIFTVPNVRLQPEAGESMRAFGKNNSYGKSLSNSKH
T12 sequence (P14616 27-1297): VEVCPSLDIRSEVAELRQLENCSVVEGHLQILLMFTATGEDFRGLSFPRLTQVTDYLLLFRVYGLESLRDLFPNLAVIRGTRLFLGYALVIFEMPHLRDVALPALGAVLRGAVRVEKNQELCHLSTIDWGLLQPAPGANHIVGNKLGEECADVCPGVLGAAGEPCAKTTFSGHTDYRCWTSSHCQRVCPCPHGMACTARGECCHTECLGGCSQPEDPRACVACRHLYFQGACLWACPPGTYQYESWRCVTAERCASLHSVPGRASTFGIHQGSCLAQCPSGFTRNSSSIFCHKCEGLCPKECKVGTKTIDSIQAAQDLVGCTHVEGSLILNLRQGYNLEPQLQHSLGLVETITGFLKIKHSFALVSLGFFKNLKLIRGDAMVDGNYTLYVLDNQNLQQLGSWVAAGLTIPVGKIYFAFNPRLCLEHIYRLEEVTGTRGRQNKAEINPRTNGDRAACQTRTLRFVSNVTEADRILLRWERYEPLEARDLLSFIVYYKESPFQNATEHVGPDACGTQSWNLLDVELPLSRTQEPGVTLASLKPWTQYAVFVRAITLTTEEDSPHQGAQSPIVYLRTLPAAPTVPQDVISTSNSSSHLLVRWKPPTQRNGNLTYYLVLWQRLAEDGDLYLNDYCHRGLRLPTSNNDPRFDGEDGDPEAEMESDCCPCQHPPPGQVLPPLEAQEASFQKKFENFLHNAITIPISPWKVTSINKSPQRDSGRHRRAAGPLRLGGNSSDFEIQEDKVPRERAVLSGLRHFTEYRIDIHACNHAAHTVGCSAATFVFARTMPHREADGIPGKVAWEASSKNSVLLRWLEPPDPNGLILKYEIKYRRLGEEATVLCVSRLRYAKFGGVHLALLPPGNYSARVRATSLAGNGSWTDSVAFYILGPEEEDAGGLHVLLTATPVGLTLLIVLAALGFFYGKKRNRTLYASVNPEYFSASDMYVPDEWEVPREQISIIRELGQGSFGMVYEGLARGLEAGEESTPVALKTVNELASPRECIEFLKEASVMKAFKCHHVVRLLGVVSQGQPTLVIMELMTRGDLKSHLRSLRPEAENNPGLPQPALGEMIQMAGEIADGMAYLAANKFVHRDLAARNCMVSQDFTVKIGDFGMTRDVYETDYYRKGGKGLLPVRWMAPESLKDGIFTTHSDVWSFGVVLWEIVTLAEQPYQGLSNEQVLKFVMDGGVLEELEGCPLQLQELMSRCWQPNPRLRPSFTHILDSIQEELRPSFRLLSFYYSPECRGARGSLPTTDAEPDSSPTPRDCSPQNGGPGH
T21 sequence (Q13188 whole entry): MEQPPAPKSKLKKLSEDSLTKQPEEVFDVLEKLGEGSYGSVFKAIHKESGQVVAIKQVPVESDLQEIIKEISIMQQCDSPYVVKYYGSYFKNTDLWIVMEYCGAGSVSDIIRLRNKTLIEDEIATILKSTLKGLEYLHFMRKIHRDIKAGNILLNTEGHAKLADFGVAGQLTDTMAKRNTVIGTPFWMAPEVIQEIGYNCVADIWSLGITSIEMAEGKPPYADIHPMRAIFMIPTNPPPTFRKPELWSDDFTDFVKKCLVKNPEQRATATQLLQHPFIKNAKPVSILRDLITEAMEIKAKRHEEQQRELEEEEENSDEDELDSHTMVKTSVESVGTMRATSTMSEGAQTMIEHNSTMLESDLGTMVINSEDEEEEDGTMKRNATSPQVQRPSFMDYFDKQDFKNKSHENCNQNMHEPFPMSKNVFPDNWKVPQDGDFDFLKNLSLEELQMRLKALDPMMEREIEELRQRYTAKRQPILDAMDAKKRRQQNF
T7 sequence (O43318 whole entry): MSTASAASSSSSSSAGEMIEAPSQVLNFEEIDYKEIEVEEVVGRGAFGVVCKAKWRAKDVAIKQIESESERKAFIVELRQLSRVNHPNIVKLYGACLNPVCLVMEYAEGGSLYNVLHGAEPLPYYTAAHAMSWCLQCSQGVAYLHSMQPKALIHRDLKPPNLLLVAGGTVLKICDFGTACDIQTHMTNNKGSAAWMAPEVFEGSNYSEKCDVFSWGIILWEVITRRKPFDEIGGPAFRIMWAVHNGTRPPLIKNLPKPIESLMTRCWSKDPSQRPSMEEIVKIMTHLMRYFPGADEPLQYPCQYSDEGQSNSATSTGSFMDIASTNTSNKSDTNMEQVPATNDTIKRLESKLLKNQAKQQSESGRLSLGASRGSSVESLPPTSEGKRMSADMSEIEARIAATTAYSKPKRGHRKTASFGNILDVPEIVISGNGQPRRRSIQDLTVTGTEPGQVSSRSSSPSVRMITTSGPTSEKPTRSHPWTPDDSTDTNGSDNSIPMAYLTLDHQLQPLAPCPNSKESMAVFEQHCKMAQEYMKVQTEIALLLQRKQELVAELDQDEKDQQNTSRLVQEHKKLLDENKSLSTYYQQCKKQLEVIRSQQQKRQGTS
T10 sequence (Q86Z02 whole entry): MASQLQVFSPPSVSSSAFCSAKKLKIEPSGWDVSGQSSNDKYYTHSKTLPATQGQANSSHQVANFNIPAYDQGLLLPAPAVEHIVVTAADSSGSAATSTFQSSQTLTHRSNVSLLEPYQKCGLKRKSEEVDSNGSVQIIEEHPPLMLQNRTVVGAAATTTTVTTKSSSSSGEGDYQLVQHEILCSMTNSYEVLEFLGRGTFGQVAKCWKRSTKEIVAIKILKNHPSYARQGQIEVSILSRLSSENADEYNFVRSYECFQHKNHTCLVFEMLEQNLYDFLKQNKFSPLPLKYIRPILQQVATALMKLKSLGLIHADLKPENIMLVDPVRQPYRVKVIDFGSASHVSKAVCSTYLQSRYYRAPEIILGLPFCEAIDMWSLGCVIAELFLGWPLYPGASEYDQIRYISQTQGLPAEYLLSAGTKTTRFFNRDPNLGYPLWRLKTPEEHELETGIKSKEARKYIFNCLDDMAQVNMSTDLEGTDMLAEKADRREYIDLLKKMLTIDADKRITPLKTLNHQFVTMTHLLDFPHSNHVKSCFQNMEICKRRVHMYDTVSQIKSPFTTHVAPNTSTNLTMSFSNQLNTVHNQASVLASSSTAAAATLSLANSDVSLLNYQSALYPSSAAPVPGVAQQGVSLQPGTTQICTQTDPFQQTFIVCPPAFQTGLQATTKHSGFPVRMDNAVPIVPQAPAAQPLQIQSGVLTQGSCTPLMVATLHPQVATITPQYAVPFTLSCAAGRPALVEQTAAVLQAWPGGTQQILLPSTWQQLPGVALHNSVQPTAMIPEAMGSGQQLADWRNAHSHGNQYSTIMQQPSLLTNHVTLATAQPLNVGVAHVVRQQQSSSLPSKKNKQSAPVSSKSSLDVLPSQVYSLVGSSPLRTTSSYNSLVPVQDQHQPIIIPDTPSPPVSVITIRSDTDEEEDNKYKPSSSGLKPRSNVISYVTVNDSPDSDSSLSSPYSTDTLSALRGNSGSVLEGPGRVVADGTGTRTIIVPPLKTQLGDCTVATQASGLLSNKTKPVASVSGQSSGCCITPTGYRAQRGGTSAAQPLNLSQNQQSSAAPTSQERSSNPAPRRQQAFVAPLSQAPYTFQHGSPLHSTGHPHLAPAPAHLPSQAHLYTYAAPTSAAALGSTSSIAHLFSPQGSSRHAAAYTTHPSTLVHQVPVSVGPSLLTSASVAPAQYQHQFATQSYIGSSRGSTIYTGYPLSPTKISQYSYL
T3 sequence (Q13976 whole entry): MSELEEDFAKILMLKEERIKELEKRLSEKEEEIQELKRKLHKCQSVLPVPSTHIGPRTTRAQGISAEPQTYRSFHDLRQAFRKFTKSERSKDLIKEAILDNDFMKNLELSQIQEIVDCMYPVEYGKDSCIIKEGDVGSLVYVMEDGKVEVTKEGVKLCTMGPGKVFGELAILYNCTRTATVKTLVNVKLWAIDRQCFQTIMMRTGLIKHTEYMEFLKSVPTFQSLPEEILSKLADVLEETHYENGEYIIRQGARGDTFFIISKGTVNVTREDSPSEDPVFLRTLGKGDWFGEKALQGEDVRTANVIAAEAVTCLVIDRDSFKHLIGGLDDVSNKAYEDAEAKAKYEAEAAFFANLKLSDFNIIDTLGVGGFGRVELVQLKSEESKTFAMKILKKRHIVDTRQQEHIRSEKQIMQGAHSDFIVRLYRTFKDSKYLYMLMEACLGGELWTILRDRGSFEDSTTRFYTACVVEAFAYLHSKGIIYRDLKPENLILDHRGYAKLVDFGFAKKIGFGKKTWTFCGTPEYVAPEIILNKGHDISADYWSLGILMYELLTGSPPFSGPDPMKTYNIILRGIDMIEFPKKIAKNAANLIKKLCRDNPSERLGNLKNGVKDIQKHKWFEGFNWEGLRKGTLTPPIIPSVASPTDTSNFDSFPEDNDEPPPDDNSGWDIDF
T25 sequence (P46734 whole entry): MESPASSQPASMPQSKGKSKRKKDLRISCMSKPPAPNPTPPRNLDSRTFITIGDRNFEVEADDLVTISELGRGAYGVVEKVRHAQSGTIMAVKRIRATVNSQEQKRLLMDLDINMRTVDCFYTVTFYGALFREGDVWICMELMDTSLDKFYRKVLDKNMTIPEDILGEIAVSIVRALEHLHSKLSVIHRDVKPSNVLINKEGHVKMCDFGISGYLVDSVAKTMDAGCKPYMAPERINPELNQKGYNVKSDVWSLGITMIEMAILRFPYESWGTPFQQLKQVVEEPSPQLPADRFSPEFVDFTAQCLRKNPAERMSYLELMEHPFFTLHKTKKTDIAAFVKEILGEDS

## CC(C)C(=O)N1CCN(c2ccc(NC(=O)c3cc4ccccc4o3)cc2Cl)CC1 [Compound 21]
[1]
  Percent Control: 92%
[2]
  Percent Control: 76%
[3]
  Percent Control: 96%
[4]
  Percent Control: 90%
[5]
  Percent Control: 97%
[6]
  Percent Control: 76%
[7]
  Percent Control: 83%
[8]
  Percent Control: 100%
[9]
  Percent Control: 77%
[10]
  Percent Control: 87%
[11]
  Percent Control: 92%
[12]
  Percent Control: 97%
[13]
  Percent Control: 88%
[14]
  Percent Control: 79%
[15]
  Percent Control: 75%
[16]
  Percent Control: 77%
[17]
  Percent Control: 98%
[18]
  Percent Control: 77%
[19]
  Percent Control: 100%
[20]
  Percent Control: 77%
[21]
  Percent Control: 95%
[22]
  Percent Control: 90%
[23]
  Percent Control: 98%
[24]
  Percent Control: 100%
[25]
  Percent Control: 76%
[26]
  Percent Control: 100%
